Laboratory results as given in patent publication US11629135B2 (JUBILANT PRODEL LLC, priority 2017, dated 2023).
Where two headings read alike, the source gives them in different places.

Assays:
[1] = Metabolic stability in liver microsomes (human); assay type: in vitro ADME; conditions: human liver microsomes 0.5 mg/mL, compound 1 μM, NADPH, up to 30 min
Procedure: (§1) Metabolic Stability in Liver Microsomes
(§2) Procedure: Potassium phosphate buffer (66.7 mM, pH 7.4) containing mouse or rat or dog or monkey or human liver microsomes (0.5 mg/mL) was pre-incubated separately with compound (1 μM) and positive control (verapamil, 1 μM) in a 37° C. water bath for 5 min. The reactions were initiated by adding 20 μL of 10 mM NADPH. Reactions without NADPH (0 and 30 min) were also incubated to rule out non-NADPH metabolism or chemical instability in the incubation buffer. All reactions were terminated using 200 μL of ice-cold acetonitrile containing internal standard at 0, 5, 15 and 30 min. The vials were centrifuged at 3000 rpm for 15 min. The reaction mixtures (obtained from the above studies) were extracted, processed and analyzed by LC-MS [Shimadzu SIL LC series (Kyoto, Japan) was coupled to an API-4000 Mass Spectrometer (MDS Sciex, Toronto, Canada)] to monitor the disappearance of compound.

[2] = Intravenous and oral pharmacokinetics in mice; assay type: in vivo, Balb/c mice; conditions: for Vd: iv, 2 mg/kg; for half-life: read-out: t1/2, β (converted)
Excerpt: Pharmacokinetics Evaluation of Compound-45: Animal Experiments Details
Institutional Animal Ethical Committee (IAEC) of Jubilant Biosys (IAEC/JDC/2018/158) nominated by CPCSEA (Committee for the Purpose of Control and Supervision of Experiments on Animals) approved the mice pharmacokinetic experiments. Male Balb/c mice (˜6-8 weeks old with body weight range of 22-25 g) were procured from Vivo Biotech, Hyderabad, India. Animals were quarantined in Jubilant Biosys Animal House for a period of 7 days with a 12:12 h light:dark cycles, and prior study the animals were stratified as per body weight. Animals had free access to feed (Altromin Spezialfutter GmbH & Co. KG., Im Seelenkamp 20, D-32791, Lage, Germany) and water ad-libitum.
Intravenous and oral pharmacokinetics study was done at a dose of 2 and 10 mg/kg and at a dose volume of 10 mL/kg. Serial blood samples (200 μL) were collected from retro-orbital plexus at 0.083 (Only for IV), 0.15, 0.5, 1, 2, 4, 8, 10 (only for PO) and 24 h. Blood samples collected in tubes containing K2.EDTA as anticoagulant and centrifuged for 5 min at 14000 rpm in a refrigerated centrifuge (Biofuge, Heraeus, Germany) maintained at 4° C. for plasma separation.
Group I (PO) (22-25 g) received compound-45 at 10 mg/Kg (suspension formulation prepared using 0.5% methylcellulose and Tween-80; dose volume: 10 mL/Kg), whereas group II received IV (24-25 g) received compound-45 intravenously [5% DMSO, 5% Solutol:absolute alcohol (1:1, v/v) and 90% of normal saline; strength: 0.2 mg/mL; dose volume: 10 mL/Kg] at 2.0 mg/Kg dose. Post-dosing serial blood samples (200 μL), sparse sampling was done and at each time point three mice were used for blood sampling) were collected at regular intervals using heparinized capillaries through retro-orbital plexus into polypropylene tubes containing K2.EDTA solution as an anti-coagulant. Animals were allowed to eat feed 2 h post dose of compound-45. Blood concentration-time data of compound-45 was analyzed by non-compartmental method using Phoenix WinNonlin Version 7.0.

[3] = tested on: RENCA renal cancer cell line; assay: In vivo efficacy in RENCA renal model; set-up: species or system Balb/c mice; conditions: oral dosing
Procedure: In Vivo Efficacy of Compound-45 in RENCA Renal Model (FIG. 1):
RENCA renal cancer cell line was procured from ATCC, USA and grown in the recommended media and culture conditions. Cells in the exponential phase were mixed with equal volume of matrigel in a 1:1 ratio, followed by implantation of 1×10^6 cells/100 μl subcutaneously on the right flank of immunocompetant Balb/c mice (1 site/mouse). Tumor cells were engrafted at the site of injection within 1-2 weeks of implantation and treatment was initiated by randomizing mice into study groups of N=10, when the average tumor volume reached 100 mm^3. Tumor bearing mice were treated with Vehicle (oral), Vehicle (IP), Compound B (orally at 30 mg/kg dose, twice daily) or Anti-PD-L1 mAb (Clone 10F.9G2, BioXcell) intraperitoneally at 0.1 mg/mouse, Q4D. Tumor volume and mouse body weight was measured three times per week during treatment, until the tumor volume reached a maximum of 2000 mm^3. Tumor volume (mm^3) was calculated using the formula—(tumor length)×(tumor width)^2/2. For pharmacokinetic parameters of Compound B, plasma and tumors were isolated at the end of the study and analyzed. Tumor growth inhibition was calculated after normalizing the tumor volume on a given day to that on day 1 based on the formula below: % TGI=[1−(Treatment TVFinal−Treatment TVinitial)/(Vehicle TVFinal−Vehicle TVinitial)]*100

[4] = tested on: plasma proteins; assay: Plasma protein binding by equilibrium dialysis; assay type: in vitro ADME, mouse; conditions: plasma, equilibrium dialysis
Procedure: (§3) To evaluate the ability of compound to bind the plasma proteins, the most common approach of plasma protein binding using equilibrium dialysis was used. Compound was tested at a final concentration of 3 μM in mouse, rat, human or dog plasma. An aliquot of 150 μL plasma containing compound was added in first half (plasma side) of the well of 96-well micro-equilibrium dialysis device. An aliquot of 150 μL of 100 mM sodium phosphate buffer pH 7.4 was added in the second half (buffer side) of the well of 96-well HT equilibrium dialysis device. The plate containing plasma and buffer was equilibrated at 37±1° C. for 4.5 h, with constant shaking at 120 rpm on an orbital shaker. Samples were collected from respective halves after the completion of incubation time. The proteins were precipitated using organic solvents. The samples were subjected to centrifugation and the supernatants were analyzed analysis on LC-MS/MS.

[5] = Plasma protein binding by equilibrium dialysis; assay type: in vitro ADME, mouse; conditions: pH 7.4; mouse plasma, 3 μM, equilibrium dialysis 4.5 h
Procedure: as §3

[6] = Metabolic stability in liver microsomes (dog); assay type: in vitro ADME; conditions: dog liver microsomes 0.5 mg/mL, compound 1 μM, NADPH, up to 30 min
Procedure: as §1, §2

[7] = Metabolic stability in liver microsomes (mouse); assay type: in vitro ADME; conditions: mice liver microsomes 0.5 mg/mL, compound 1 μM, NADPH, up to 30 min
Procedure: as §1, §2

[8] = male, mouse, plasma, Balb C mice, IV dose of 2 mg/Kg
[9] = male, mouse, plasma, Balb C mice, oral dose of 10 mg/Kg

## COc1nc(OCc2cccc(-c3ccccc3)c2C)nc(OC)c1CN1CCCC[C@H]1C(=O)O [Compound 45, (S)-1-((4,6-dimethoxy-2-((2-methyl-[1,1′-biphenyl]-3-yl)methoxy)pyrimidin-5-yl)methyl)piperidine-2-carboxylic acid]
[1]
  Metabolic stability in liver microsomes: > 80%
[2]; Balb C mice, IV dose of 2 mg/Kg
  Tlast: 8.00 h
[2]; Balb C mice, oral dose of 10 mg/Kg
  Tlast: 24.0 h
[2]; Balb C mice, oral dose of 10 mg/Kg, 10 mg/kg
  Oral bioavailability (F %): 90.6%
[2]; male, Balb/c, mouse, plasma, Balb C mice, IV dose of 2 mg/Kg, read-out: Vd
  Vd: 0.74 L/kg
[2]; male, Balb/c, mouse, plasma, Balb C mice, IV dose of 2 mg/Kg, read-out: Vdss
  Vd: 1.2 L/kg
[2]; male, Balb/c, mouse, plasma, po, 10 mg/kg, Balb C mice, oral dose of 10 mg/Kg, read-out: Oral bioavailability (F %)
  bioavailability: 91%
[2]; [8]
  AUC(0-inf): 4920 ng·h/mL
  AUC(0-t): 4480 ng·h/mL
  Cmax: 2110 ng/mL
  clearance: 6.77 mL/min/kg
  half-life: 1.27 h
[2]; male, mouse, plasma, Balb C mice, IV dose of 2 mg/Kg, extrapolated, calculated manually using initial 3 time points
  C0: 2130 ng/mL
[2]; [9]
  AUC(0-inf): 21100 ng·h/mL
  AUC(0-t): 20300 ng·h/mL
  Cmax: 4840 ng/mL
  Tmax: 0.5 h
  half-life: 6.32 h
[2]; mice, intravenous
  clearance as share of hepatic blood flow (HBF): 8 % hepatic blood flow
  volume of distribution relative to total body water (TBW): 40 times
[3]; RENCA tumor bearing Balb/c mice
  body weight during the dosing regimen: no significant body weight reduction
[3]; syngeneic Balb/c mice, 30 mg/kg twice daily, comparator Anti-PD-L1 mAb 0.1 mg/mouse IP Q4D
  efficacy in RENCA renal model (tumor growth): better or similar efficacy compared to PD-L1 monoclonal antibody
[4]
  stability and recovery in plasma: good
[5]
  fraction unbound at 4.5 h, 3 μM: 0.039
[6]
  Metabolic stability in liver microsomes: > 80%
[7]
  Metabolic stability in liver microsomes: > 80%
